Patent US20080249061A1, “Photostable Pharmaceutical Composition Containing Brivudine for the Treatment of Herpetic Keratitis” (priority 2005, published 2008)
Values joined by “and” are separate entries in the source; they are usually repeats but may differ in a detail not shown here. Identical values can stand only once.

How the values were obtained:
[1] = tested on: clinical isolates (HSV-1); conditions: panel of 20 clinical isolates, two similar assays; cited from earlier work
clinical VZV strains = conditions: 13 clinical VZV strains; cited from earlier work
clinical HSV-1 strains = conditions: panel of 23 clinical HSV-1 strains; cited from earlier work
[2] = intra ocular bioavailability study in rabbit
[3] = Photostability test (SUNTEST CPS+, 320-800 nm); type: physicochemical; conditions: after irradiation of one hour, no film former contained
Procedure: The photo stability tests themselves have been performed using a SUNTEST CPS+ instrument of the company Atlas. The applied irradiation energy is indicated below: • Irradiation energy (time): 1.3 J/cm^2 (10 min), 2.6 J/cm^2 (20 min), 4.0 J/cm^2 (30 min), 8.9 J/cm^2 (67 min), 26.7 J/cm^2 (201 min) • Wave length range: 320-800 nm

[4] = additional studies on drug product-tolerability; type: in vivo
Text: Formulations based on film formers are commonly used as artificial tear drops. They are approved since decades without any general or special adverse effects published.

## Nc1nc2c(ncn2CCC(CO)CO)c(=O)[nH]1 [penciclovir]
[1]
  mean IC50: 0.6 µg/mL and 0.8 µg/mL
Clinical VZV strains
  mean IC50: 0.91 µg/mL

## Nc1nc2c(ncn2COCCO)c(=O)[nH]1 [acyclovir]
Clinical VZV strains
  mean IC50: 0.2 µg/mL
Clinical HSV-1 strains
  mean IC50: 0.92 µg/mL

## O=c1[nH]c(=O)n([C@H]2C[C@H](O)[C@@H](CO)O2)cc1/C=C/Br [brivudine, (E)-5-(2-bromovinyl)-2′-deoxyuridine]
Clinical VZV strains
  mean IC50: 0.001 µg/mL
[2]
  active in blood: never found in blood
  presence of the active substance in the cornea: ≥ 6 h
[3]
  starting amount of brivudine recovered: 33.4%
[4]; formulations based on film formers
  influence of brivudine on the drug product-tolerability: no deterioration of the pharmaceutical properties was observed
[4]; in vivo
  systemic absorption in the blood: without systemic absorption in the blood
[4]; ocular region, other: ophthalmic (topical ocular)
  time brivudine remains in the ocular region: more than 2 hours
Clinical HSV-1 strains
  mean IC50: 0.52 µg/mL
